Measured values from patent publication US6620843B2, “Anticancer treatment using triptolide prodrugs” (priority 2001, dated 2003).
Like-named read-outs stand apart in the source and are kept apart here.

Test system: HT-29 human colon tumors
Experimental: Human Tumor Xenograft Study. An HT-29 human colon cancer cell line was purchased from ATCC (Manassas, Va.). Cells were cultured in DMEM (Dulbecco's Modified Eagle's Medium) from GIBIOBRL (Grand Island, N.Y.) with 10% fetal bovine serum (FBS) supplemented with L-glutamine and Penicillin/Streptomycin. The tumor cells were harvested when cultures reached 80-90% confluence. The supernatants were discarded and the cell pellets were suspended to 1×10^8 cells/ml in DMEM medium without FBS. HT-29 cells (5×10^6) were implanted intradermally on the back of each mouse. Tumor size was monitored by measuring the length (L), width (W), and height (H) of each tumor and calculating tumor volume (Vol=½×4/3π×(L/2)×(W/2)×H).
Mice bearing human tumor cell xenografts were treated with PG490-88 IP daily for 5 days per week. The compound was administered as the sodium salt. CPT-11 was administered IV twice per week. 5-FU was given IP daily for 5 days per week. The stock solutions of each therapeutic agent were diluted in 0.9% NaCl for dosing. The agents were given to mice at 100 μl per 10 g of mouse body weight. Mice were dosed for two weeks, and 0.9% NaCl was used as the vehicle control. Tumor volume was monitored, and toxicity of the chemotherapeutic treatment was monitored by weighing the mice every day.

Compound: CCc1c2c(nc3ccc(OC(=O)N4CCC(N5CCCCC5)CC4)cc13)-c1cc3c(c(=O)n1C2)COC(=O)[C@]3(O)CC [CPT-11, irinotecan, reference compound]
- tumor growth inhibition (in words) (CPT-11 22 mg/kg): slight to moderate

Compound: CC(C)[C@]12O[C@H]1[C@@H]1O[C@]13[C@]1(O[C@H]1C[C@H]1C4=C(CC[C@@]13C)C(=O)OC4)[C@@H]2OC(=O)CCC(=O)O [PG490-88, triptolide 14-succinate]
- tumor growth inhibition (in words) (0.125 mg/kg, by day 16): slightly inhibited
- tumor growth inhibition (in words) (0.25 mg/kg, by day 16): moderate inhibition
- tumor growth inhibition (in words) (0.75 mg/kg, by day 16): strongly inhibited tumor growth and induced tumor regression
- tumor growth inhibition, dose dependence (in words) (0.125-0.75 mg/kg): inhibited HT-29 tumor growth in a dose-dependent manner
- percent increase in mean tumor volume at day 16 (PG490-88 0.125 mg/kg IP daily 5 days per week, day 16 vs initial value, vehicle control 721%): 462%
- percent increase in mean tumor volume at day 16 (PG490-88 0.25 mg/kg IP daily 5 days per week, day 16 vs initial value, vehicle control 721%): 131%
- percent decrease in mean tumor volume at day 16 from the initial value (PG490-88 0.75 mg/kg IP daily 5 days per week, day 16): 54%
- mean tumor volume at day 9 (in words) (PG490-88 0.75 mg/kg, day 9): decreased from the day 5 value to approximately the initial value

Compound: O=c1[nH]cc(F)c(=O)[nH]1 [5-FU, 5-fluorouracil, reference compound]
- tumor growth inhibition (in words) (5-FU 20 mg/kg): only slightly inhibited tumor growth
- percent increase in mean tumor volume at day 16 (5-FU 20 mg/kg IP daily 5 days per week, day 16, control group 721%): 470%
- toxicity in tumor-bearing mice (mouse, in vivo): showed signs of toxicity
